Tested on: subject's respiratory system
Assay: acoustic transmission (transfer function magnitude) monitoring of a subject's broncho-dynamic response
Assay type: in vivo
Settings: FIG. 11, subject with exacerbation of asthma; combined treatment with Salbutamol and Ipratropium Bromide, treatment and recovery phase
Protocol: This involves introducing a sound signal having known characteristics into the airway of a subject in a step 101. The signal propagates through the lung and chest tissues to the chest wall and is detected in steps 102, 105 using one or more transducers attached to the subject at one or more locations on the thoracic surface. Preferably, baseline acoustic transmission is determined in a step 103. In a step 106, changes in the detected signal are monitored during and after administration of a broncho-effector (step 104). These changes are indicative the subject's airway response (i.e. changes in airway patency due do constriction, dilation or mucus production). The test is terminated in step 107. […] By positioning the reference transducer here, the transfer function calculated by processor 205 represents the acoustic transmission of subject's respiratory system including the lower airways, alveolar sacs, thoracic tissues etc., but excludes the effects of the apparatus used to introduce the sound (e.g. loudspeaker, tubing) and the upper airways. […] The introduced sound signal is transmitted through the subject's airways, lung parenchyma and chest wall tissues such as muscle, ribs, skin etc. and in a step 102, is detected at one or more locations on the thoracic surface. […]

For `CC(C)(C)NCC(O)c1ccc(O)c(CO)c1` (centres unmarked) [Salbutamol], the airway patency was “gradual improvement”.

In the case of `CC(C)[N+]1(C)[C@@H]2CC[C@H]1CC(OC(=O)C(CO)c1ccccc1)C2.[Br-]` (some centres unmarked) [Ipratropium Bromide], the airway patency is reported as “gradual improvement”.

From patent US20120215126A1, “DETERMINING DYNAMIC AIRWAY RESPONSE IN A SUBJECT” (priority 2009, published 2012)
